Measurements taken from patent publication US11965159B2, “Compositions and methods for regulating proteins and nucleic acids activities” (THE BROAD INSTITUTE, INC., priority 2019, dated 2024).

Target: T1, SpCas9:gRNA ribonucleoprotein complex (Streptococcus pyogenes serotype M1, UniProt Q99ZW2)
T1 construct: His6 (N, cleaved yes); made in house; host or cells: E. coli BL21 Star (DE3)
Test: 19F NMR binding assay
Conditions: [Ligand] 50 μM
Method: (§1) NMR binding assay. All samples were prepared with 50 μM BRD7087 in 20 mM Tris buffer (pH=7.4) with varying concentrations of SpCas9:gRNA in a 3 mm NMR tube. Experiments were performed on a 600 MHz (19F: 564.71 MHz) BRUKER Avance™ III NMR spectrometer equipped with a 5 mm QCI-F CryoProbe™ and a SampleJet for automated sample handling. To acquire spectra, a standard one-pulse 19F experiment with WALTZ-16 for proton decoupling during acquisition, a 5 second recycle delay, and 256 scans was used. All spectra were recorded at 280 K. NMR data were apodized with a 1 Hz exponential function prior to Fourier transformation. All spectra were baseline corrected; peak widths and intensities were extracted using the automated line-fitting feature provided with the MNova software package. Determination of the value of Kd was accomplished using least squares fitting to the expression given in Equation 8 in the paper by Shortridge et al.2.
Kd values obtained by NMR rely on the assumption that ligand binding is in fast-exchange, which typically holds true for ligands with Kd in the 0.5 μM to 20 mM range.
as §1, with “(^19F:” for “(19F:”, “^19F” for “19F”, “al.^2.” for “al.2.”

T1 sequence (Q99ZW2 whole entry, one chain of several): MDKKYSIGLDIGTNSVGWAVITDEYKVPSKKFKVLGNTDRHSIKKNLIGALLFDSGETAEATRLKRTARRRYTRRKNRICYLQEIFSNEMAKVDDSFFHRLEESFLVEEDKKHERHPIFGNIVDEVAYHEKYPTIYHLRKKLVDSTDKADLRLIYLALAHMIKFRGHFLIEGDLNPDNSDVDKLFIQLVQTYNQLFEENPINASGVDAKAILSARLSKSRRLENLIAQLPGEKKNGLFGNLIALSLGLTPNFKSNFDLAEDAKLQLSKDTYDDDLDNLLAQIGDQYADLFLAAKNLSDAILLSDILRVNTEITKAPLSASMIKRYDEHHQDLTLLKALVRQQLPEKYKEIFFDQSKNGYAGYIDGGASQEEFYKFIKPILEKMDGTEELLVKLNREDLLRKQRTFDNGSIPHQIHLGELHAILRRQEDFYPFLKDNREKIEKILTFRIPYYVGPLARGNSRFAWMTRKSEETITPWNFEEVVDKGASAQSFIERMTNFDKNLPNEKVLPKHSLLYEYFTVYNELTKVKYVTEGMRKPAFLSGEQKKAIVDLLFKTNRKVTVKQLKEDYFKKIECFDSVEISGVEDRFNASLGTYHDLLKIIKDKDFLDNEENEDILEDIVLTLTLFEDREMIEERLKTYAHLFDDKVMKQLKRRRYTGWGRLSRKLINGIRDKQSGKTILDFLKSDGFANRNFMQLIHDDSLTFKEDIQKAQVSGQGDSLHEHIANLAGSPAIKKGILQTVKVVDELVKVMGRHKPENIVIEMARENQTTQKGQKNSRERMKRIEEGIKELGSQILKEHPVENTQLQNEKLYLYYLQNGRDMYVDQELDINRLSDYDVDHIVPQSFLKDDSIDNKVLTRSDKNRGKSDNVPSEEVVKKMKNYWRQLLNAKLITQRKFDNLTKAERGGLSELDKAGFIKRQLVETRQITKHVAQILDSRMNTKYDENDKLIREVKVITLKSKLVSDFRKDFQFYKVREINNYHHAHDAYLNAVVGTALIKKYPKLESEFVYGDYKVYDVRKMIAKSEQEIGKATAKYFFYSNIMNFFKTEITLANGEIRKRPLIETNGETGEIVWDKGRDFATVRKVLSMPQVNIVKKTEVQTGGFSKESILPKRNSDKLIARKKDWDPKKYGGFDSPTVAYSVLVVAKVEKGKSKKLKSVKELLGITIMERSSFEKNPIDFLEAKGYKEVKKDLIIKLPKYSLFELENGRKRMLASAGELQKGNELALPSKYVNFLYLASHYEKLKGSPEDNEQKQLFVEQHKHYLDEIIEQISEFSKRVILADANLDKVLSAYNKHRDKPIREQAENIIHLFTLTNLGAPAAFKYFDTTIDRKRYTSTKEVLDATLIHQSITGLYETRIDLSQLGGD

For OC[C@H]1Nc2ccc(-c3cccc(F)c3)cc2[C@H]2[C@@H]1CCN2Cc1ccncc1 [BRD7087, ((3aR,4S,9bR)-8-(3-Fluorophenyl)-1-(pyridin-4-ylmethyl)-2,3,3a,4,5,9b-hexahydro-1H-pyrrolo[3,2-c]quinolin-4-yl)methanol], the LW ([Protein:RNA] 0 μM) was 4.1 Hz, the “Peak Area” value ([Protein:RNA] 0 μM) was 3151271.718 and the “Peak Intensity” value ([Protein:RNA] 0 μM) was 572470.95. The “Fractional Occupancy” value ([Protein:RNA] 0 μM, 1-Ibound/I0) was 0, the LW ([Protein:RNA] 0.75 μM) was 4.3 Hz and the “Peak Area” value ([Protein:RNA] 0.75 μM) was 2968891.536. The “Peak Intensity” value ([Protein:RNA] 0.75 μM) was 497630.81, the LW ([Protein:RNA] 1.0 μM) was 4.6 Hz and the “Peak Area” value ([Protein:RNA] 1.0 μM) was 2999269.636. For the same compound, the “Peak Intensity” value ([Protein:RNA] 1.0 μM) was 468481.06, the LW ([Protein:RNA] 1.25 μM) was 5.3 Hz and the “Peak Area” value ([Protein:RNA] 1.25 μM) was 2964107.303. The “Peak Intensity” value ([Protein:RNA] 1.25 μM) was 398322.72, the LW ([Protein:RNA] 1.5 μM) was 5.9 Hz and the “Peak Area” value ([Protein:RNA] 1.5 μM) was 3176044.761. For the same compound, the “Peak Intensity” value ([Protein:RNA] 1.5 μM) was 375769.97, the LW ([Protein:RNA] 1.75 μM) was 6.3 Hz and the “Peak Area” value ([Protein:RNA] 1.75 μM) was 3020022.312. The “Peak Intensity” value ([Protein:RNA] 1.75 μM) was 342640.49.
